The text below walks through data of a melting point compilation (Tetko et al.; mined from patent text by program, amines drawn as free bases though some values may be those of a salt).

As for `CCOC(=O)C(Cc1ccc(OCCN2CCC(C)(C)c3cc(C(=NO)c4ccccc4)ccc32)cc1)OCC` (centres undefined), the melting point (commonly the temperature of the solid-liquid transition) is 46 to 48 °C.

Molecule `COc1ccc(C(SC)c2ccc(OC)cc2)cc1` registered a melting point of 62 to 63 °C.

As for `CC(C)CN(C)c1cc2c(cc1C(F)(F)F)NC(=O)CC(c1cccc(-n3cncn3)c1)=N2`, the melting point worked out at 198 °C.

`CCCCSc1nc(=O)n(C(=O)NC)s1` returned a melting point of 102 °C.

With `COc1ccc(C(=O)C=C2CCCN2)cc1`, the melting point is 134 to 135 °C.

The molecule `NC(=O)c1cc2cc(F)ccc2nc1N` yielded a melting point of 232 to 236 °C.

For `Nc1ccc2nc(N)sc2c1`, the melting point fell in the range of 202 to 203 °C.

With `O=Cc1cc2ccccc2nc1I`, the melting point was in the range of 150 to 152 °C.

Consider `O=C(c1cc(O)c(O)c([N+](=O)[O-])c1)c1cccs1`, for which the melting point is 155 to 157 °C.

Turning to `O=S1(=O)c2cccc3cccc(c23)N1CCCN1CCN(c2ccccc2)CC1`, the melting point turned out to be 126 °C.

Molecule `CCOP(=O)(OCC)c1cc2nc(OCc3ccccc3)c(OCc3ccccc3)nc2c2c1CN(C)CC2` gave a melting point of 104 °C.

`CCOC(=O)c1c(Cl)c2cccnc2n(Cc2ccccc2)c1=O` showed a melting point of 109 °C.

The molecule `CC(=O)Nc1cnc(-c2ccccc2)[nH]c1=O` had a melting point of 281 to 282 °C.

With `CON1C(C)(C)CC(OC(=O)N=NC(=O)OC2CC(C)(C)N(OC)C(C)(C)C2)CC1(C)C`, the melting point lay in the range of 145 to 147 °C.

For `O=[N+]([O-])c1ccc(NC(CO)(CO)CO)cc1`, the melting point is 165 °C.

In turn, `Cc1cc(S(=O)(=O)c2ccc(N)cc2)cc(Br)n1` registered a melting point of 189 to 191 °C.

As for `COc1ccc(-c2nc(C(=O)O)cn2-c2ccc(OC)cc2)cc1`, the melting point was 102 to 105 °C.

Molecule `CC(=O)C1=C(O)C(C(=O)C=Cc2ccc(C)cc2)C(=O)OC1=O` (centres undefined) registered a melting point of 188 to 190 °C.

`O=C(O)C1(Cc2ccccc2)CCN(Cc2ccccc2)C1` (centres undefined) had a melting point of 209 to 210 °C.

Turning to `COc1ccc(OC)c(-c2cn(N=Cc3ccccc3)c(N)n2)c1`, the melting point fell in the range of 180 to 181 °C.

As for `CCc1oc(C2CCCCC2)nc1CC(=O)O`, the melting point lay within 101 to 102 °C.

As to `CC(C)OC(=O)N1CCC(c2nc3cc(-c4ccc(C(=O)NCCO)c(F)c4)ccc3o2)CC1`, the melting point was 145 to 147 °C.

On to `CCCCN(Cc1ccc(-c2ccccc2-c2nc(=O)o[nH]2)cc1)c1ncncc1C(=O)OCC`, for which the melting point lay in the range of 65 to 69 °C.

Consider `CC1(C)CCC(C)(C)c2cc(COc3ccccc3-c3ccccc3C(=O)O)ccc21`, for which the melting point is 75 to 76 °C.

In the case of `Cc1oc(-c2ccccc2)nc1CCOc1ccc(S(=O)(=O)Nc2cc(Cl)ccc2C(=O)O)cc1`, the melting point fell in the range of 223 to 225 °C.

Regarding `O=C(c1ccc(O)cc1)c1ccc(OCCOCCO)cc1`, the melting point fell in the range of 126 to 127 °C.

The molecule `N#Cc1ccc(NCCCN2C3CCC2CNC3)cc1` showed a melting point of 44 to 46 °C.

Molecule `COC(=O)c1ccc(Cc2cccc3ccc(CC(C)C(=O)O)cc23)c(OC)c1` (centres undefined) came in with a melting point of 110 to 129 °C.

For `O=P(Oc1ccccc1)(Oc1ccc(-c2cssc2=S)cc1)Oc1ccc(-c2cssc2=S)cc1`, the melting point was 75 to 80 °C.

`Cc1ccc2c(=O)n(S(=O)(=O)c3ccc(Cl)cc3)c(=O)[nH]c2c1C` had a melting point of 241 to 245 °C.

`COC(=O)[C@@H]1CCCN1C(=O)CCC(=O)c1ccc(Br)cc1` had a melting point of 78 to 82 °C.

`Cn1nccc1C(=O)Nc1cc(Oc2ccc3nc(NC(=O)C4CC4)cn3n2)ccc1F` returned a melting point of 253 °C.

The molecule `CCOP(=O)(CC(Nc1cccnc1)c1cc(OC)c(OC)c(OC)c1)OCC` (centres undefined) showed a melting point of 104 to 106 °C.

Turning to `CCOC(=O)c1c(CN(CC)CC)nc2sc3c(c2c1-c1ccc(OC)c(OC)c1)CCN(C(=O)NC)C3`, the melting point fell in the range of 153 to 155 °C.

The molecule `Cc1oc(-c2ccccc2)nc1COc1cccc(CSc2cccc(C(=O)O)c2)c1` yielded a melting point of 129 to 130 °C.

Regarding `CSc1ccc(-c2cnn(CC(F)(F)F)c(=O)c2Cl)cc1`, the melting point lay in the range of 130 to 139 °C.

The molecule `O=C(NC1CCOc2cc(C(=O)O)ccc21)OCc1ccccc1` (centres undefined) had a melting point of 227 to 228 °C.

Regarding `N#Cc1cccc(C(=O)Cc2ccnnc2)c1`, the melting point is 142 to 144 °C.

Molecule `O=C(O)C(CBr)N(C(=O)c1ccccc1)N1C(=O)CCC1=O` (centres undefined) registered a melting point of 174 to 177 °C.

In turn, `CCOC(=O)Cc1ccc2c(c1)CC(NC(=O)OC)CC2` (centres undefined) showed a melting point of 89 to 90 °C.

In the case of `O=C(CN1CCOCC1)N[C@@H](Cc1ccccc1)[C@@H](O)[C@H](O)[C@H](Cc1ccccc1)NC(=O)CN1CCOCC1`, the melting point was in the range of 172 to 177 °C.

`CCOC(=O)CC[C@H](NC(=O)c1ccc(CCC2CNc3nc(NC(=O)C(C)(C)C)[nH]c(=O)c3C2)s1)C(=O)OCC` (some centres undefined) showed a melting point of 169 to 170 °C.

`CC(C)c1cccc(C(C)C)c1NC(=O)NCC1(c2ccc(N(C)C)cc2)O[C@H](C)[C@@H](C)O1` showed a melting point of 165 to 167 °C.

In the case of `Nc1ccc(C(=O)c2cccc(N)c2)cc1`, the melting point lay in the range of 121 to 123 °C.

`CCN(C)c1nc(-c2ccc(OC)cc2)nc2sc(C#N)c(C)c12` came in with a melting point of 122 to 123 °C.

Take `CC(O)c1ccc(-c2ccc(OCc3ccc(Cl)cc3)cc2)cc1` (single isomer, unassigned; (+)): the melting point lay within 165 to 167 °C.

For the molecule `CCCCCC(C)(C)NC(=O)CCl`, the melting point lay within 36 to 37 °C.

With `N#CCc1cc(Cl)ncc1[N+](=O)[O-]`, the melting point lay within 87 to 89 °C.

In turn, `O=C1CC2CCCCC2C(=O)C1C(=O)c1ccc(Cl)cc1[N+](=O)[O-]` (centres undefined) yielded a melting point of 112 °C.

For the molecule `CC1CCC(C)N1CCNc1ccnc2cc(Cl)ccc12` (centres undefined), the melting point lay within 127 to 130 °C.

In the case of `CC(O)C1CCC2C3CC=C4CC(N)CCC4(C)C3CCC12C` (centres undefined), the melting point is 160 °C.

`COc1cc2c(cc1Nc1ncc(Cl)c(Nc3ccccc3S(=O)(=O)N(C)C)n1)CCN(CCN1CCOCC1)C(=O)C2`: the melting point is 75 to 91 °C.

`Cc1cc(SC2=C(O)CC(CCc3ccc(N)cc3)(CCc3ccc(N)cc3)OC2=O)c(C(C)(C)C)cc1CO` yielded a melting point of 144 to 146 °C.

The molecule `C=CCNC1=NS(=O)(=O)c2ccc(Cl)cc2N1` registered a melting point of 284 to 286 °C.

In the case of `CCCCCCCC(N)=NO`, the melting point lay in the range of 73 to 75 °C.

As to `CC(=O)C1c2cccc(O)c2C(=O)c2c(O)cccc21`, the melting point is 146 °C.

Turning to `CCOC(=O)c1ccc(N2CCN(Cc3cc(C)c4c(c3)NC(=O)C(C)O4)CC2)nc1` (centres undefined), the melting point amounted to 206 °C.

Take `CC(=O)c1cc(Cl)c(N)c(C#N)c1F`: the melting point was 180 to 182 °C.

For the molecule `N#CCNC(=O)c1ncn2c1CN(C(=O)N1CCCC1)c1ccccc1-2`, the melting point fell in the range of 241 to 242 °C.

`Nc1ccc(C(=O)C(=O)c2ccc(N)cc2)cc1` registered a melting point of 207 °C.

Regarding `CC(C)CSc1nc(N)nc2c1ncn2C1C=CC(CO)C1` (centres undefined), the melting point lay within 127 to 129 °C.

The molecule `COC(=O)c1nc(-c2ccccc2)n2c1CN=C(c1ccccc1Cl)c1cc(Cl)ccc1-2` registered a melting point of 272 to 275 °C.

Take `N#Cc1ccc(OCCCOc2ccc(-c3cc4cc(C#N)ccc4o3)cc2)cc1`: the melting point is 188 to 189 °C.

For the molecule `Cc1nc(-c2ncn3c2[C@@H]2CCCN2C(=O)c2c(Cl)cccc2-3)n(C)n1`, the melting point is 221 to 222 °C.

In turn, `Cc1cccc(-c2n[nH]cc2-c2ccc(F)c(-c3cc[nH]n3)c2)n1` came in with a melting point of 105 to 108 °C.

`NS(=O)(=O)c1ccc(-c2[nH]c3ccc(Cl)cc3c2-c2ccc(Cl)cc2)cc1` had a melting point of 245 to 247 °C.

Turning to `C=C(C)C(=O)Oc1c(C(C)c2cc(C(C)(C)CC)cc(C(C)(C)CC)c2O)cc(C(C)(C)CC)cc1C(C)(C)CC` (centres undefined), the melting point is 103 to 105 °C.

With `O=C(SC1CCN(C(C(=O)C2CC2)c2ccccc2F)CC1)c1ccccc1` (centres undefined), the melting point lay in the range of 55 to 59 °C.

As for `COc1cc2cc(C(=O)OC(C)(C)C)c(N)cc2cc1OCc1ccccc1`, the melting point was 179 to 180 °C.

With `CC1Nc2ccc(-c3csc(C#N)c3)cc2C(C)(C)O1` (centres undefined), the melting point is 175 to 176 °C.

In the case of `CCOc1ccncc1NS(=O)(=O)c1nc2cc(C)nc(OC)n2n1`, the melting point fell in the range of 184 to 186 °C.

The molecule `COc1cc(C)cc(Sc2cccc(F)c2C#N)c1` showed a melting point of 94 to 95 °C.

For the molecule `O=C(NCCc1ccc2c(c1)OCO2)C12CC3CC(CC(C3)C1)C2`, the melting point lay within 146 to 148 °C.

Take `O=C(C=Cc1ccncc1)c1cccc(C(F)(F)F)c1`: the melting point fell in the range of 89 to 90 °C.

Turning to `Nc1ccc(C(=O)N2CCC[C@@H]3CCCC[C@H]32)cc1[N+](=O)[O-]` (relative stereo), the melting point fell in the range of 212 to 215 °C.

`Nc1ccc(C(=O)Nc2ccc(-c3ccc(C(=O)N4CCN5CCC4CC5)o3)cc2)cc1` registered a melting point of 151 °C.

`COC(=O)c1cccc(-c2cccc(Oc3cc(Cl)cc(Cl)c3)n2)c1` yielded a melting point of 125 to 126 °C.

For the molecule `Cc1cc2nc(Cl)cc(NCc3c(C)cccc3C)c2[nH]1`, the melting point was 310 to 312 °C.

As to `O=C(O)C(=CNc1ccc(O)c(=O)cc1)C(=O)O`, the melting point lay within 175 to 176 °C.

As for `COc1ccc(S(=O)(=O)N(COCC[Si](C)(C)C)c2ccccc2-c2cc(F)ccc2C(C)=O)cc1`, the melting point fell in the range of 94 to 95 °C.

`COc1ccc([N+](=O)[O-])c(CS(=O)(=O)c2ccccc2)n1` yielded a melting point of 147 to 149 °C.

On to `CN1C(=O)c2ccccc2Nc2ccccc21`, for which the melting point is 210 to 211 °C.

In turn, `COc1cc2c(c(O)c1C)COC(C)C2` (centres undefined) gave a melting point of 143 to 145 °C.

For `CN1Cc2c(C#N)ncn2-c2ccsc2C1=O`, the melting point was in the range of 206 to 208 °C.

`CCCCOc1ccc(CCCCCCCCC(=O)NO)cc1` yielded a melting point of 99 to 101 °C.

The molecule `Oc1nc2cccccc-2n1` displayed a melting point of 245 °C.

The molecule `CCC1Cc2c(nc3ccc(F)cc3c2C(=O)O)-c2ccc(-c3ccccc3F)cc21` (centres undefined) returned a melting point of 236 to 237 °C.

Consider `CCOC(=O)c1cn(C2COC2)c2cc(F)c(F)cc2c1=O`, for which the melting point fell in the range of 177 to 178 °C.

For the molecule `CCC1C2C(C(=O)N1Cc1ccc3c(c1)OCO3)C(c1ccc(C#N)cc1)N1CCCC21` (centres undefined), the melting point fell in the range of 150 to 151 °C.
